Assay [1] deals with cyclooxygenase pathway (PGE2). The assay is described as follows: biosynthesis of mediators of the cyclooxygenase pathway in vitro on rat polymorphonucleocytes stimulated by ionophore A23187. In kind it is cell-based. The source says: (§1) Tordjman et al. ("High-performance liquid chromatographic quantitation of cyclooxygenase and lipoxygenase metabolites of arachidonic acid from rat polymorphonuclear leucocytes" Journal of Chromatography, 532, 1990, 135-143).

The subject of assay [2] is rat. The experiment in a line: polyarthritis auto-immune model in the rat using Freund's adjuvant. In kind it is in vivo. Conditions: oral, 5 mg/kg/day, 14th day of the pathology. On the procedure:
3) The activity on chronic inflammation was evaluated in a polyarthritis auto-immune model in the rat using Freund's adjuvant in accordance with the protocol described by J. Bonnet et al. ("Bone morphometric changes in adjuvant-induced polyarthritic osteopenia in rats; evidence for an early bone formation defect" J. Bone Miner. Res. 8, 1993, 659-668). By way of example, the compound of Example 1, at an oral dose of 5 mg/kg/day, inhibits by 30% the diffusion of arthritis on the 14th day of the pathology.

In assay [3] the test system is mouse. The experiment in a line: acute inflammatory pain test in the mouse (Siegmund test, writhing). Format: in vivo. The conditions noted are these: oral administration, read-out: dose causing 50% inhibition of the reactions of the animal. The source says:
Exp. Ther. 119, 1957, 184).
For orientation: Writhing tests count abdominal constrictions after an irritant is injected.

Assay [4] relates to lipoxygenase pathway (LTB4). The experiment in a line: biosynthesis of mediators of the lipoxygenase pathway in vitro on rat polymorphonucleocytes stimulated by ionophore A23187. In kind it is cell-based.
Source text: as §1

As usually defined, the IC50 is the point on the concentration scale where inhibition reaches its midpoint. Regarding `COc1ccc(-c2cc(CCC(=O)N(C)O)sc2-c2ccc(OC)cc2)cc1` [Example 1, 3-[4,5-bis(4-methoxyphenyl)thien-2-yl]-N-hydroxy-N-methylpropionamide], the IC50 was determined as 50 nM in assay [1] and 30 nM in assay [4]. Moreover, the “inhibition of the diffusion of arthritis” value in assay [2] is 30%. In assay [3], the ED50 is 1 mg/kg.

In the case of `COc1ccc(-c2sc(CCC(=O)N(C)O)cc2-c2ccc(F)cc2)cc1` [Example 2], the IC50 in assay [1] turned out to be 380 nM; in assay [4], 80 nM. Besides, the ED50 in assay [3] came out at 5 mg/kg.

As for `COc1ccc(-c2cc(CCC(C)(C)CC(=O)NO)sc2-c2ccc(OC)cc2)cc1` [Example 3], the IC50 in assay [1] is 2500 nM; in assay [4], 1000 nM.

With `COc1ccc(-c2cc(CCC(C)(C)CC(=O)N(C)O)sc2-c2ccc(OC)cc2)cc1` [Example 4], the IC50 in assay [1] stood at 750 nM; in assay [4], 380 nM.

On to `COc1ccc(-c2sc(CCC(C)(C)CC(=O)N(C)O)cc2-c2ccc(F)cc2)cc1` [Example 5], for which the IC50 in assay [1] amounted to 2500 nM; in assay [4], 250 nM.

For `COc1ccc(-c2cc(CCCC(=O)N(C)O)sc2-c2ccc(OC)cc2)cc1` [Example 6], the IC50 was 380 nM in assay [1] and 50 nM in assay [4]. For the same compound, the ED50 in assay [3] came out at 2.5 mg/kg.

On to `COc1ccc(-c2sc(CCCC(=O)N(C)O)cc2-c2ccc(C)cc2)cc1` [Example 16], for which the IC50 in assay [1] and in assay [4] was 50 nM throughout.

With `CCN(O)C(=O)CCc1cc(-c2ccc(OC)cc2)c(-c2ccc(OC)cc2)s1` [Example 22], the IC50 in assay [1] came to 80 nM; in assay [4], 50 nM.

Values taken from patent publication USRE37078E, “Thiophene compounds” (Adir et Compagnie, priority 1995, dated 2001).
